Results: PMC6534341, “α-Synuclein–Confocal Nanoscanning (ASYN-CONA), a Bead-Based Assay for Detecting Early-Stage α-Synuclein Aggregation” (Analytical Chemistry, 2019)
Where two headings read alike, the source gives them in different places.

Molecular target: T1, α-synuclein (Homo sapiens, UniProt P37840, A91C)
T1 construct: gene SNCA
Assay: ASYN-CONA on-bead aggregation assay (confocal bead ring intensity, […] EtOH, […] h)
Type: biochemical

## O=c1cc(-c2ccccc2)oc2cc(O)c(O)c(O)c12 [baicalein]
  IC50: 4.32 ± 0.6 µM

## COc1cc(/C=C/C(=O)CC(=O)/C=C/c2ccc(O)c(OC)c2)ccc1O [curcumin]
read-out: IC50
  IC50: 2.76 ± 0.89 µM

## CO[C@H]1/C=C/O[C@@]2(C)Oc3c(C)c(O)c4c(O)c(c(/C=N/N5CCN(C)CC5)c(O)c4c3C2=O)NC(=O)/C(C)=C\C=C\[C@H](C)[C@H](O)[C@@H](C)[C@@H](O)[C@@H](C)[C@H](OC(C)=O)[C@@H]1C [rifampicin]
read-out: IC50
  IC50: 502 ± 360 µM
